{"source": "patent US5204328A", "about": "“Peptides having atrial natriuretic factor activity” (Merck & Co., Inc., priority 1991, dated 1993)", "tested_on": "Rabbit Renal Artery", "test": "Vasorelaxant relative potency, rabbit renal artery", "format": "cell-based", "note": "Where a SMILES comes first, the peptide text is derived from it. Bridges are numbered along the chain shown (N, C = ends).", "data": [{"compound": "CC[C@H](C)[C@@H]1NC(=O)[C@H](CCCNC(=N)N)NC(=O)[C@H](CC(=O)O)NC(=O)[C@H]([C@@H](C)CC)NC(=O)[C@H](CCCNC(=N)N)NC(=O)CNC(=O)CNC(=O)[C@H](Cc2ccccc2)NC(=O)[C@@H](N)CSSC[C@@H](C(=O)N[C@@H](CC(N)=O)C(=O)N[C@@H](CO)C(=O)N2CCC[C@H]2C(=O)N[C@@H](CCCNC(=N)N)C(N)=O)NC(=O)CNC(=O)[C@H](CC(C)C)NC(=O)CNC(=O)[C@H](CO)NC(=O)[C@H](CCC(N)=O)NC(=O)[C@H](C)NC(=O)CNC1=O", "note": "[Structure 23, PROLINE-26 ANF (7-27) amide] (H-CFGGRIDRIGAQSGLGCNSPR-NH2; disulfide 1-17)", "values": [{"measurement": "Vasorelaxant Relative Potency Rabbit Renal Artery", "setting": "Table 1, (3-28) analogs, relative to sequence I = 1", "result": 3.3}]}, {"compound": "CC[C@H](C)[C@@H]1NC(=O)[C@H](CCCNC(=N)N)NC(=O)[C@H](CC(=O)O)NC(=O)[C@H]([C@@H](C)CC)NC(=O)[C@H](CCCNC(=N)N)NC(=O)CNC(=O)CNC(=O)[C@H](Cc2ccccc2)NC(=O)[C@@H](N)CSSC[C@@H](C(=O)N[C@@H](CC(N)=O)C(=O)N[C@@H](CO)C(=O)N2CCC[C@H]2C(=O)N[C@@H](CCCNC(=N)N)C(N)=O)NC(=O)CNC(=O)[C@H](CC(C)C)NC(=O)CNC(=O)[C@H](CO)NC(=O)[C@H](CCC(N)=O)NC(=O)[C@H](C)NC(=O)CNC1=O", "note": "[Structure 23] (H-CFGGRIDRIGAQSGLGCNSPR-NH2; disulfide 1-17)", "values": [{"measurement": "Vasorelaxant Relative Potency Rabbit Renal Artery", "setting": "Table 2, (7-27)-NH2 analogs, relative to I (7-27)-NH2 = 1", "result": 3.86}]}]}
